Experimental findings from article PMC4321555, “Differential inhibition of Arabidopsis superoxide dismutases by peroxynitrite-mediated tyrosine nitration” (Journal of Experimental Botany, 2014) are described below.

What all share (format): biochemical
Test [1] deals with T1, MSD1 (MnSOD; manganese SOD1) (Arabidopsis thaliana, UniProt O81235, Y63F).
T1 sequence (O81235 1-231 Y63F): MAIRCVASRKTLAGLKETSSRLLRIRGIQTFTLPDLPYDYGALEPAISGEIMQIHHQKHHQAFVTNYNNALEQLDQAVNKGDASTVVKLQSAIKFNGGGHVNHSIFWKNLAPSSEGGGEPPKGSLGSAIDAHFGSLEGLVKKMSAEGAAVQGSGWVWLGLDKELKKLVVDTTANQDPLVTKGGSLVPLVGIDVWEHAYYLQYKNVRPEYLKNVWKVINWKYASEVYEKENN
Nature of the test: SOD activity after peroxynitrite treatment. The note with it: covalent (tyrosine nitration); 20 min, RT, dark; potassium phosphate pH 8.0.

The target in test [2] is T2, CSD3 (Cu/ZnSOD3; peroxisomal copper/zinc SOD3) (Arabidopsis thaliana, UniProt Q9FK60).
T2 sequence (Q9FK60 1-164): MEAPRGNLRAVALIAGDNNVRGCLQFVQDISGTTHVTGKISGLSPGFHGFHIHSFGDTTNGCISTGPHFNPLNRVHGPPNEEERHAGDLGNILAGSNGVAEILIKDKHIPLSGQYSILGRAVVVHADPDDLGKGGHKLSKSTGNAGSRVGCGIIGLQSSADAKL
Nature of the test: SOD activity after peroxynitrite treatment (cytochrome c reduction). The note with it: covalent (tyrosine nitration, Tyr115); 20 min, RT, dark; potassium phosphate pH 8.0.

Test [3] addresses T3, MSD1 (MnSOD; manganese SOD1) (Arabidopsis thaliana, UniProt O81235).
T3 sequence (O81235 1-231): T1 sequence (O81235 1-231 Y63F) with F63Y
The description is as above. The note with it: covalent (tyrosine nitration, mainly Tyr63); 20 min, RT, dark; potassium phosphate pH 8.0.

Test [4] addresses T4, FSD3 (FeSOD3; chloroplastic iron SOD3) (Arabidopsis thaliana, UniProt Q9FMX0).
T4 sequence (Q9FMX0 1-263 limits assumed): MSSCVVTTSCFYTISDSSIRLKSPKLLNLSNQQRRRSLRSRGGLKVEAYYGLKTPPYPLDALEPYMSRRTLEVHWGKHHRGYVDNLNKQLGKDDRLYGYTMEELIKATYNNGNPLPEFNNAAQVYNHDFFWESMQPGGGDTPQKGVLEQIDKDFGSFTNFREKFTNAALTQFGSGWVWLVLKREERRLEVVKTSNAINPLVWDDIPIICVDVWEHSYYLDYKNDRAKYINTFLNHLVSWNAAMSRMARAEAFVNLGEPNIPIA
The description is as above. Particulars: covalent (tyrosine nitration); 20 min, RT, dark; potassium phosphate pH 8.0.

Test [5] deals with T5, CSD1 (Cu/ZnSOD1) (Arabidopsis thaliana, UniProt P24704).
T5 sequence (P24704 1-152): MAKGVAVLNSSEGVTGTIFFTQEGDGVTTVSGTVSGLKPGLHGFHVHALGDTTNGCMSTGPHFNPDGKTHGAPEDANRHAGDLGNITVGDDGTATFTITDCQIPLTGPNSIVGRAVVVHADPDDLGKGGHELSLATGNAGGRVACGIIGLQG
Nature of the test: NBT-formazan SOD assay (xanthine/xanthine oxidase). Particulars: superoxide generated by xanthine oxidase; 570 nm.

Test [6] concerns the target T6, FSD2 (Arabidopsis thaliana, UniProt Q9LU64).
T6 sequence (Q9LU64 1-305 limits assumed): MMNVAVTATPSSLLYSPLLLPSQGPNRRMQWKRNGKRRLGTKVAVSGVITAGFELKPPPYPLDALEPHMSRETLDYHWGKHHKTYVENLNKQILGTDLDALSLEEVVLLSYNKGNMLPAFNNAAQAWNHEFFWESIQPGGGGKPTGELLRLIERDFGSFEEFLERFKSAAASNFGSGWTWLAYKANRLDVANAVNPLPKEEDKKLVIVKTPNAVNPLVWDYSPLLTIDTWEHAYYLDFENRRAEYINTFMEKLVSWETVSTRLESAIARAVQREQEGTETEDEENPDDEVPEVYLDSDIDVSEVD
Description: NBT-formazan SOD assay (xanthine/xanthine oxidase). The note with it: superoxide generated by xanthine oxidase; 570 nm.

Test [7] concerns the target T7, FSD1 (Arabidopsis thaliana, UniProt P21276).
T7 sequence (P21276 1-212): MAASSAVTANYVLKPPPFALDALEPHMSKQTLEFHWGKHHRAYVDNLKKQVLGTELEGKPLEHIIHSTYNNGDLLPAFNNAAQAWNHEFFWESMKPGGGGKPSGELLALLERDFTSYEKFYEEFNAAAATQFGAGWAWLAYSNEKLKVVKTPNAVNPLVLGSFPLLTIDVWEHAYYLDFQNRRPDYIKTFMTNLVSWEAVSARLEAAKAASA
Description: NBT-formazan SOD assay (xanthine/xanthine oxidase). Particulars: superoxide generated by xanthine oxidase; 570 nm.

The target of test [8] is T8, CSD2 (Cu/ZnSOD2) (Arabidopsis thaliana, UniProt O78310).
T8 sequence (O78310 1-216 limits assumed): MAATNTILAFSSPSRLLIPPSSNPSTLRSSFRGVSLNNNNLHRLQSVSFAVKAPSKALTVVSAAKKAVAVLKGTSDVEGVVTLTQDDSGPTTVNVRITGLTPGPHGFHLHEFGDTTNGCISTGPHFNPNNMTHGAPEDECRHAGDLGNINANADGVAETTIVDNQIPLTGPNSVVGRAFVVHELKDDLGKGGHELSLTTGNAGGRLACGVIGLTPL
Description: NBT-formazan SOD assay (xanthine/xanthine oxidase). The note with it: superoxide generated by xanthine oxidase; 570 nm.

The target in test [9] is T2, CSD3 (Cu/ZnSOD3; peroxisomal copper/zinc SOD3). Description: NBT-formazan SOD assay (xanthine/xanthine oxidase). The note with it: superoxide generated by xanthine oxidase; 570 nm.
Test [10] has as its target T3, MSD1 (MnSOD; manganese SOD1). Description: NBT-formazan SOD assay (xanthine/xanthine oxidase). Particulars: superoxide generated by xanthine oxidase; 570 nm.
Test [11] addresses T4, FSD3 (FeSOD3; chloroplastic iron SOD3). Description: NBT-formazan SOD assay (xanthine/xanthine oxidase). The note with it: superoxide generated by xanthine oxidase; 570 nm.

Structures are written as SMILES. Numbering of substitutions follows the chain as printed.

For orientation: % inhibition means the relative decrease from the control value, in per cent. A low value points to a response near the control. Regarding `O=NOO` [peroxynitrite], the figures for the “% inhibition at 500 μM” value in test [1] and in test [3] were 30% and ~ 90%, respectively. Besides, the “% remaining activity at 500 μM” value in test [2] and in test [4] was 65% in each case.

With `[O]O` [superoxide], the “NBT-formazan SOD assay (xanthine/xanthine oxidase)” value in [5] is “The activity of the purified, recombinant SODs was determined using the nitroblue tetrazolium (NBT)–formazan method”; in test [6], “The activity of the purified, recombinant SODs was determined using the nitroblue tetrazolium (NBT)–formazan method”; in test [7] it was “The activity of the purified, recombinant SODs was determined using the nitroblue tetrazolium (NBT)–formazan method”; in test [8] it was “The activity of the purified, recombinant SODs was determined using the nitroblue tetrazolium (NBT)–formazan method”; in test [9], “The activity of the purified, recombinant SODs was determined using the nitroblue tetrazolium (NBT)–formazan method”; in [10], “The activity of the purified, recombinant SODs was determined using the nitroblue tetrazolium (NBT)–formazan method”. Besides, the “NBT-formazan SOD assay (xanthine/xanthine oxidase)” value in [11] is reported as “The activity of the purified, recombinant SODs was determined using the nitroblue tetrazolium (NBT)–formazan method”.
